The text below walks through data of patent publication US20110184018A1, “METHOD FOR TREATING PERIPHERAL NEUROPATHIC PAIN” (LOHOCLA RESEARCH CORPORATION, priority 2005, published 2011).

pIC50, pKd, pKi: −log10 of the molar value. Where two headings read alike, the source gives them in different places.

For data set [1], the target named is voltage sensitive sodium channel (neurotoxin receptor Site 2). Put plainly: [3H]BTX binding assay. To be noted: rat cortical synaptosomes.
In data set [2] the target is T1, glycine recognition site of the NMDA receptor complex (Rattus norvegicus, UniProt P35439).
T1 construct: The telencephalon (cerebral cortex, hippocampus, and striatum) was dissected and homogenized; from tissue; host or cells: rat telencephalon membranes (cerebral cortex, hippocampus, striatum), Triton X-100 treated
In words: [3H]5,7-DCKA binding assay. The settings on record: rat cortical membranes; none = no displacement at 100 μM. As to the method: General receptor-binding procedures. Male Sprague-Dawley rats were decapitated and their brains removed rapidly. The telencephalon (cerebral cortex, hippocampus, and striatum) was dissected and homogenized in 20 volumes of ice-cold 0.32 M sucrose, 20 mM HEPES-KOH (pH 7.2 at room temperature) containing protease inhibitors ([…], 5 mg/mL antipain, 20 mg/mL soybean trypsin inhibitor, 500 μM benzamidine, […] aprotinin, and 500 μM phenylmethylsulfonyl fluoride) with a motor driven glass-TEFLON® fluorocarbon homogenizer (8-10 strokes at setting 1). The homogenate was centrifuged at 800 g for 10 minutes. The pellet was discarded and the supernatant was centrifuged at 20,000 g for 20 minutes. The resulting pellet was resuspended in 20 volumes of distilled water containing 500 μM benzamidine and centrifuged for 20 minutes at 7500 g. Then the supernatant and buffy coat were centrifuged three times (51,500 g for 20 minutes) in the presence of distilled water containing 500 μM benzamidine. All centrifugation steps were carried out at 4° C. The final pellet was frozen rapidly at −80° C.
On the day of the assay, the pelleted membranes were resuspended in 20 volumes of 50 mM HEPES-KOH buffer, pH 7.4, and incubated for 20 minutes at 37° C. followed by centrifugation (51,500 g for 20 minutes). Membranes were then resuspended in 50 mM HEPES-KOH buffer (pH 7.8) containing 0.08% Triton X-100. After stirring for 30 minutes at 4° C., the membranes were pelleted by centrifugation (100,000 g for 20 minutes). The membranes were then washed twice by resuspension in the buffer appropriate for the binding assay and centrifugation (100,000 g for 20 minutes). The final pellet was suspended in assay buffer. The amount of protein in the final membrane preparation was determined with the bicinchoninic acid method (BCA; Pierce Chemical Co., Rockford, Ill.). The final protein concentration used for our studies was 300 to 600 μg/mL. Receptor-binding protocols described below were adapted from published procedures. For all assays, the samples, all in duplicate or triplicate, were placed into scintillation vials containing 5.5 mL of scintillation liquid (Ultima Gold; Packard Instrument Co., Inc., Meriden, Conn.) and the retained radioactivity was determined by conventional scintillation spectroscopy with a Beckman TA-6000 scintillation counter. Radio-ligands were purchased from DuPont-NEN (Boston, Mass.).
[^3H]5,7-Dichlorokynurenic acid (5,7-DCKA)-binding assay. The glycine recognition site of the NMDA receptor complex was labeled with the competitive antagonist [^3H]5,7-dichlorokynurenic acid (5,7-DCKA). […]
Data Analysis. The data were analyzed with SigmaPlot 5.0 and SigmaStat 2.0 (Jandel Scientific, Corte Madera, Calif.) software. […]

The target of data set [3] is T2, CB1 receptor (Homo sapiens, UniProt P21554).
T2 construct: expressed in transfected cells; host or cells: HEK293 cells (ATCC), calcium phosphate transfection
T2 sequence (P21554 whole entry): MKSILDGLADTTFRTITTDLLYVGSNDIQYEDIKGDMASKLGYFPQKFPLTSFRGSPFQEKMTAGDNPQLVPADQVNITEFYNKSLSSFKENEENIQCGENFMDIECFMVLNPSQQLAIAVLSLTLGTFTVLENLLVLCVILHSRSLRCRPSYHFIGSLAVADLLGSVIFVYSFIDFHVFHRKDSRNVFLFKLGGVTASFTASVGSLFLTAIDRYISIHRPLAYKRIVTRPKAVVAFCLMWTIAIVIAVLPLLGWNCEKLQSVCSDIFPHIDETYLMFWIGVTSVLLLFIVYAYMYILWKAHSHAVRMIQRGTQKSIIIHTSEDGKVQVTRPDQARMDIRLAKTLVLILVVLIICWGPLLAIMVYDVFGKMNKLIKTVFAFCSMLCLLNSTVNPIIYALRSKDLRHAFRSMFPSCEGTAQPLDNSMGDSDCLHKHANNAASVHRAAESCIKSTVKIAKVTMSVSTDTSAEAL
In words: cAMP accumulation in HEK293 cells transfected with AC5, D1AR, CB1R. Type of data set: cell-based. As to the method: HEK293 cells were obtained from American Type Culture Collection (Manassas, Va.). Cells were cultured in 225 mL flasks containing 39 mL of MEM containing 10% fetal bovine serum, penicillin (50 μg/mL), streptomycin (50 μg/mL), and neomycin (100 μg/mL). The flasks were maintained in a humidified atmosphere of 95% air and 5% CO2 at about 37° C. Transfection was performed by the method of DNA precipitation with calcium phosphate 1 day after HEK 293 cells were transferred to small flasks (75 mL) at the density of approximately 60 to 80% confluence. Plasmid DNA containing AC5 or AC7 cDNA (11.5 μg), plasmid DNA carrying the human D1A dopamine receptor cDNA (3 μg) and CB1 receptor cDNA (3 μg), and pCMS-EGFP (1 μg) were used for each small flask, which also contained 13 mL of the culture medium. The amount of DNA per flask was adjusted to a total of 26 μg using vector DNA. Transfection efficiency was routinely monitored by observing the expression of enhanced green fluorescent protein (GFP) by an epifluorescence microscope equipped with a filter set (excitation, 480/40 nm; emission, 535/50 nm) and a dichroic mirror (T89002bs; Chroma Technology, Rockingham, Vt.). After transfection, cells were harvested and transferred into 24-well culture plates. The transfected cells were cultured for 1 to 2 days before the cAMP accumulation experiments were carried out.
After labeling and intracellular ATP pool with 3.0 μCi/mL of [2,8-^3H]adenine, cells were incubated in DMEM (0.5 mL/well) without phenol red, buffered to pH 7.1 with 20 mM of 4-(2-hydroxyethyl)-1-piperazineethanesulfonic acid (HEPES) for 30 minutes at 37° C.
To determine the effect of the DCUK-OEt or other compounds on the function of the CB1 receptor, the cells were treated with the phosphodiesterase inhibitor, IBMX (500 μM), for 10 minutes at 37° C., followed by the addition of D1A receptor agonist, dopamine (DA) (1 μM), in the presence of a known CB1 agonist or agonist, plus a CB1 antagonist for 5 minutes. The following agonist and antagonist were used: CB1 receptor agonist, ACEA (10 μM); CB1 receptor antagonist, AM251 (10 μM). In additional reactions, the addition of DA was accompanied by addition of DCUK-OEt (10 μM) or DCUK-OEt together with AM251 (10 μM). In a final set of reactions DCUK-OEt was added with ACEA (10 μM), to assess whether DCUK-OEt acted like a CB1 receptor antagonist. The reactions were terminated by adding 50 μL of 100% (w/v) tricholoroacetic acid. ATP and cAMP were separated through Dowex 50 and neutral alumina columns as is known in the art, and quantified by liquid scintillation counting. [α-^32P]ATP and 8-[^14C]cAMP were added as internal standards to monitor the recovery of ATP and cAMP through column chromatography. Conversion of [^3H] ATP into [^3H]cAMP was calculated as follows: [^3H]cAMP (%)=[^3H]cAMP (cpm)/([^3H]ATP (cpm)+[^3H]cAMP (cpm))·100. [^3H]cAMP (%) values obtained from cells which underwent only the 10-minute IBMX incubation period before the addition of trichloroacetic acid, were used as blanks and these values were subtracted from the values obtained from cells which underwent the 1-minute incubation period with DA in the presence or absence of other agonists/antagonists. Each condition was assayed in triplicate and the whole experimental procedure was repeated 4 times. The ratio of cAMP accumulation was calculated for all treatment groups versus DA treatment group (100%) and the values were averaged among the four batches of experiments.

For data set [4], the target named is rat brain type IIA Na+ channel (Nav1.2) (Rattus norvegicus, UniProt P04775). In words: Whole-cell patch clamp recordings of Na+ currents in CNaIIA-1 cells. Type of data set: cell-based. (In general: In patch-clamp work, channel activity is measured electrically.)
Chain of rat brain type IIA Na+ channel (Nav1.2) (P04775 whole entry): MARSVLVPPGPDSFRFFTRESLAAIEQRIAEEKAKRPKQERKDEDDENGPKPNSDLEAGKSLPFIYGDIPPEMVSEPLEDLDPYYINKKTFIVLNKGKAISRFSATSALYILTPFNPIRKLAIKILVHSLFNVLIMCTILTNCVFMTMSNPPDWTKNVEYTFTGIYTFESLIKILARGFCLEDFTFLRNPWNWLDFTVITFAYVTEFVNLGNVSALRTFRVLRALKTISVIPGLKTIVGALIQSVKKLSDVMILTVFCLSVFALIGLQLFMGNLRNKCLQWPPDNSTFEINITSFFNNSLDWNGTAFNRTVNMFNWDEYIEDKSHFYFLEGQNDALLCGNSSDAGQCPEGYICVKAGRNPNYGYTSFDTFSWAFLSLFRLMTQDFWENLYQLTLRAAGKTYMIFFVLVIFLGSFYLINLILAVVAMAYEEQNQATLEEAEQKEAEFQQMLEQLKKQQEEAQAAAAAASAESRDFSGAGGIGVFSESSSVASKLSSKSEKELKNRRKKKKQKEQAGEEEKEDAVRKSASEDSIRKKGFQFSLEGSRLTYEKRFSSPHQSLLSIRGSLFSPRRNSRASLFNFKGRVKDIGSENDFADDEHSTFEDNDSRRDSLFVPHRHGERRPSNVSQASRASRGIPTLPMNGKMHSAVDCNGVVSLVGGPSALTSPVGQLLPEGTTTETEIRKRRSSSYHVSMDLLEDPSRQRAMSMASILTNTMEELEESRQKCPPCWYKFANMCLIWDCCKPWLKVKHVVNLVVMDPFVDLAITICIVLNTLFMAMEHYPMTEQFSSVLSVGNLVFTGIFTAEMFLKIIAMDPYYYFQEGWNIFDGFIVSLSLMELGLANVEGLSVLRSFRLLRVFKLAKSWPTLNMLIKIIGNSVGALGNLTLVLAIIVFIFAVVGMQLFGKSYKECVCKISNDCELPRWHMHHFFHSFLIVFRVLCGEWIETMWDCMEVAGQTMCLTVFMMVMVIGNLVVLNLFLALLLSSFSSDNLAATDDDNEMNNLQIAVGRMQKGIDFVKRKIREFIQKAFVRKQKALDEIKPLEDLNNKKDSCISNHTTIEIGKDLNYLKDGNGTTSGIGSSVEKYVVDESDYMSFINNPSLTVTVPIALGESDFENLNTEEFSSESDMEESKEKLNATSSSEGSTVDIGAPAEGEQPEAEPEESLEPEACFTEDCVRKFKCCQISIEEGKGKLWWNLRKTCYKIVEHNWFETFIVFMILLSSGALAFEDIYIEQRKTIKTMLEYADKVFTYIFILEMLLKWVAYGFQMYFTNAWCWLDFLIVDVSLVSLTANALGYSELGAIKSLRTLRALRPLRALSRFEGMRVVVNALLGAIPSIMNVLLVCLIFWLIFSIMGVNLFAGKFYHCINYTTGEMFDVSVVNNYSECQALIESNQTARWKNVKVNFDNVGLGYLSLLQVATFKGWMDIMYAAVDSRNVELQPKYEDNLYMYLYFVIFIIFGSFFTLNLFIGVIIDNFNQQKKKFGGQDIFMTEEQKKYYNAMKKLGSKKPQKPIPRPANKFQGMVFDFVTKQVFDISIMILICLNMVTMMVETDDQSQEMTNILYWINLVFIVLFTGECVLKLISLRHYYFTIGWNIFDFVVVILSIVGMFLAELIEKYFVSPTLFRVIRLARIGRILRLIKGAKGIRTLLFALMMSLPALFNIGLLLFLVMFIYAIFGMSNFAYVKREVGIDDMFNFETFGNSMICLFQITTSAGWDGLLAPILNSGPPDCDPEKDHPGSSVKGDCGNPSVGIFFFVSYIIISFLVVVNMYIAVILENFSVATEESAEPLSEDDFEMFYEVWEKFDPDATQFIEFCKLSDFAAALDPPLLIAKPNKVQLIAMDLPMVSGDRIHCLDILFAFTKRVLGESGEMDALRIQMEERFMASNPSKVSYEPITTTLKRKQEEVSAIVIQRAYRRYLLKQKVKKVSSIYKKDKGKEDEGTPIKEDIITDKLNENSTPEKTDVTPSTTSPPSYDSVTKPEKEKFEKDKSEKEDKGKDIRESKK
The subject of data set [5] is DBA/2 mice. In words: Audiogenic seizures. It is filed as in vivo, mouse. To be noted: i.p., 100 and 500 mg/kg. As to the method: Audiogenic Seizures. Male DBA/2J mice (20-22 days old; 8-12 g) were used to evaluate the effects of DCUK-OMe in an animal model of partial seizures. Mice were dosed (i.p.) with vehicle (5% TWEEN 80/0.5% methylcellulose), 100 mg/kg DCUK-OMe, or 500 mg/kg DCUK-OMe, 30 minutes before noise stimulation. Mice were placed into a cylindrical Plexiglas testing chamber (15×50 cm, diameter 3 height) enclosed in a sound-attenuated box. After a 15- to 20-second habituation period, a high-intensity auditory stimulus (ringing doorbell; 12-16 kHz, 109 db) was activated for 30 seconds or until tonic hindlimb extension occurred. The seizure response in these mice is characterized by a progression of a wild running behavior, followed by loss of righting and clonus of the forelimbs, followed by tonic hindlimb extension, and finally respiratory arrest.

Data set [6] in a line: Solubility limit in aqueous assay buffers. Type of data set: physicochemical. The settings on record: aqueous assay buffers (incubation or bath solutions), aqueous buffer, kinetic from dmso stock, DMSO 0.2 to 1%, read-out: concentrations that could not be tested due to limited solubility in aqueous buffers. As to the method:
Drugs. For all in vitro assays, stock solutions of DCUKA or DCUK-OMe were prepared fresh daily in dimethylsulfoxide (DMSO) then diluted into the incubation or bath solutions with sonication to the desired concentrations for experiments. Due to their limited solubility in aqueous buffers, DCUKA concentrations >300 μM and DCUK-OMe concentrations >100 μM could not be tested. In those assays where high ionic strength buffers were used, i.e., [^3H]batrachiotoxin (BTX) binding in depolarized synaptosomes, concentrations >50 μM could not be tested. The final concentration of DMSO in the assays ranged from 0.2 to 1%. In all assays, drug effects were compared with effects measured in the presence of the identical concentration of DMSO without drug.

[7] abbreviates: none = no displacement at 100 μM, read-out: IC50 [3H]BTX binding.

For `O=C(O)c1cc(=O)c2c(Cl)cc(Cl)cc2[nH]1` [5,7-DCKA, 5,7-dichlorokynurenic acid, reference compound], in data set [1] (none = no displacement at 100 μM), the “IC50 [3H]BTX binding” value is given as “none”. Moreover, the pIC50 (commonly the IC50 on a negative log10 scale, so that one unit is a factor of ten) in data set [2] is 6.96.
Consider `CCCCC/C=C\C/C=C\C/C=C\C/C=C\CCCC(=O)NCCCl` [ACEA, reference compound], for which, in data set [3] (AM251 10 μM), the “effect on DA stimulated cAMP production with AM251 added” value is given as “the effect of ACEA was reversed”. Moreover, the “effect on DA stimulated cAMP production” value in data set [3] (dopamine 1 μM, compound 10 μM) is listed as “reduced cAMP production”.
As to `NC(=O)N1c2ccccc2C=Cc2ccccc21` [CBZ, carbamazepine, reference compound], the negative-log Kd (pKd) (in general, −log10 of the Kd, conventionally taken in molar units) in data set [4] was 3.40. The pKi – broadly, the negative decadic logarithm of the Ki, by convention in mol/L – in data set [4] was 4.84. Also, the negative-log IC50 (pIC50) in data set [1] (depolarizing conditions (135 mM KCl), read-out: IC50 [3H]BTX binding under depolarizing conditions (value in parentheses)) is 4.25; in data set [1] (setting [7]) it was 4.15. In addition, the “IC50 [3H]5,7-DCKA binding” value in data set [2] is on record as “none”.
In the case of `COC(=O)c1cc(NC(=O)N(c2ccccc2)c2ccccc2)c2c(Cl)cc(Cl)cc2n1` [DCUK-OMe, N,N-diphenyl-4-ureido-5,7-dichloro-2-carboxy quinoline methyl ester], the pIC50 in data set [1] (setting [7]) is 4.60. Besides, the “protection against audiogenic seizures” value in data set [5] is “protection against audiogenic seizures”. Moreover, the “IC50 [3H]5,7-DCKA binding” value in data set [2] was “none”. The solubility in data set [6] was above 100 µM.
